Paper PMC12645437, “Orthogonal IMiD-Degron Pairs Induce Selective Protein Degradation in Cells” (ACS Chemical Biology, 2025)

Columns and labels:
[1] = target: WEIK mutant ZF degron fused to EGFP (Homo sapiens, UniProt Q96SW2+Q9UKT9, N149E/Q147W/Q150I/S154K); assay: Ratiometric EGFP:mCherry flow cytometry degradation assay, 18 h
endogenous IKZF1 = target: T1, endogenous IKZF1 (Homo sapiens, UniProt Q13422+Q96SW2); assay: Western blot for IKZF1 in WEIS-EGFP Jurkat cells; format: cell-based; conditions: Jurkat transduced with EGFP-WEIS, 18 h
T1 construct: endogenous in cells; host or cells: Jurkat (untransduced for immunostaining; WEIS-EGFP-transduced for the blot)
T1 sequence (Q13422 whole entry): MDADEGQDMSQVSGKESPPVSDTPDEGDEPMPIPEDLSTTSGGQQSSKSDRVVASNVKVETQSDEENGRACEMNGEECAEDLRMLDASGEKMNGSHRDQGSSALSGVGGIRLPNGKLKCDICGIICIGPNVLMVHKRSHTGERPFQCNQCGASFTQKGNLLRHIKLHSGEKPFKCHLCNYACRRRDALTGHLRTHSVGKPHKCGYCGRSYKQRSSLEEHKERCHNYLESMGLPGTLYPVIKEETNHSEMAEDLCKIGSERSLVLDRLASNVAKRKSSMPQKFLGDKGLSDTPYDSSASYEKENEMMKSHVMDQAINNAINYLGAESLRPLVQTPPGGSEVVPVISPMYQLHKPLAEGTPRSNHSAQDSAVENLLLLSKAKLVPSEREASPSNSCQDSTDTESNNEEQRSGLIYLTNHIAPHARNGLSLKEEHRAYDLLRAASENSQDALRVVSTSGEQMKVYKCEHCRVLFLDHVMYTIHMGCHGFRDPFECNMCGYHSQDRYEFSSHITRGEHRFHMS
T1 sequence (Q96SW2 whole entry): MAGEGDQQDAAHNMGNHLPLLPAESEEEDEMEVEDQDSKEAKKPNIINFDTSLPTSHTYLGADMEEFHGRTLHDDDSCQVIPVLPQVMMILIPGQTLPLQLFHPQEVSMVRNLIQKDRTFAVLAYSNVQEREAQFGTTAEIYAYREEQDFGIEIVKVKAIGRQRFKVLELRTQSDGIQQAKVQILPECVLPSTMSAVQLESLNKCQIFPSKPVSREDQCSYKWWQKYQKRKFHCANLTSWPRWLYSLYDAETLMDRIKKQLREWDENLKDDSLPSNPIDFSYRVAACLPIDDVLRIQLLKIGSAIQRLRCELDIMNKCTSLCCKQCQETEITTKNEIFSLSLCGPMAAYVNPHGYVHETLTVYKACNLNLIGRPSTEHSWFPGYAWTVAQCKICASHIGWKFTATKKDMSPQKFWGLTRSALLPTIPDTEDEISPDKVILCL
T1 sequence (Q16531 whole entry partner): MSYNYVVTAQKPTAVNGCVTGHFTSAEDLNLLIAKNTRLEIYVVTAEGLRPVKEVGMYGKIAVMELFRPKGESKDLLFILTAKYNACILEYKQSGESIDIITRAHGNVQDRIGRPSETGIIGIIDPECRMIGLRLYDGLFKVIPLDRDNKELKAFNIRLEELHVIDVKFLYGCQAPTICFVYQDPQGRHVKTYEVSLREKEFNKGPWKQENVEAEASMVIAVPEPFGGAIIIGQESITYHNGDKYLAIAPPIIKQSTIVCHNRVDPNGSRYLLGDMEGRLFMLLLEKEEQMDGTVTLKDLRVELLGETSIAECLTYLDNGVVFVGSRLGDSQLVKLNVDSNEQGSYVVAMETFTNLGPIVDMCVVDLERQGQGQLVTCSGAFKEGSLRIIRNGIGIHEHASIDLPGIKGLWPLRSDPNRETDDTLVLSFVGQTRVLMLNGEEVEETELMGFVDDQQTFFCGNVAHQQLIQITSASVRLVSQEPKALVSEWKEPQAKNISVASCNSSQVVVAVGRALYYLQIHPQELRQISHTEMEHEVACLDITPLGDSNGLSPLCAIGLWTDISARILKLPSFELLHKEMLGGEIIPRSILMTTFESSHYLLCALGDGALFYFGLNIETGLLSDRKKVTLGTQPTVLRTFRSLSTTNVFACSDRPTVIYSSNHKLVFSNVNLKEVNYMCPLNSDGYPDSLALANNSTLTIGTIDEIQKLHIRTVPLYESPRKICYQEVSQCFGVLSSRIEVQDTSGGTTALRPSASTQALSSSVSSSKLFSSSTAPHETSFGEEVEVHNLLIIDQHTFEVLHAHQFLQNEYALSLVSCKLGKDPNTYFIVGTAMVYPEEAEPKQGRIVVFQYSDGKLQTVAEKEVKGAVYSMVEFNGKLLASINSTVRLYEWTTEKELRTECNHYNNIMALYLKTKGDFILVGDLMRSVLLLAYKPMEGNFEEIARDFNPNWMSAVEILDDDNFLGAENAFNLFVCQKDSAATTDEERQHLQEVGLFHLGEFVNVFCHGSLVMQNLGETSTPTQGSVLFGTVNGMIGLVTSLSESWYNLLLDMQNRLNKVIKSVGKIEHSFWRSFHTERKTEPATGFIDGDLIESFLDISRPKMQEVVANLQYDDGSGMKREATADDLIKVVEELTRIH

HA-NanoLuc-WEIS = target: T2, HA-NanoLuc-WEIS (Homo sapiens, UniProt Q96SW2+Q9UKT9, N149E/Q147W/Q150I); assay: HA antibody immunoblotting in HEK293T cells; format: cell-based; conditions: 18 h, Western blot
T2 construct: pLVX-Sprout-IKZF3 130-189aa Q147W N149E Q150I (WEIS); expressed in transfected cells; host or cells: HEK293T, lentiviral transduction, puromycin-selected
T2 sequence (Q9UKT9 130-189 Q147W/N149E/Q150I): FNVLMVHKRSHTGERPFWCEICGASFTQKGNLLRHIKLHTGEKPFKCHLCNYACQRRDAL
T2 sequence (Q96SW2 whole entry): as the sequence (Q96SW2 whole entry) above
T2 sequence (Q16531 whole entry partner): as the sequence (Q16531 whole entry partner) above

MM.1S cells = assay: TMTpro quantitative proteomics, 16 h; conditions: 10 μM
Procedure: Quantitative proteomics screens were carried out in untransduced Jurkat cells, embryonic stem cells (ESCs), and the multiple myeloma cell line, MM.1S. We used Jurkat cells, as our work up to this point had employed this cell line, and we selected ESCs and MM.1S cells as they express known CRBN neosubstrates, including IKZF1, IKZF3, RAB28, RNF166, SALL4, ZFP91, and ZNF827.
Proteomics - cell lysis and protein digestion
The viability of Jurkat cells was tested after 16-h treatment with corresponding chemicals
viable cells in each condition. Next, ~10^7 cells per condition were collected by centrifugation (1000 rpm), washed twice with ice-cold PBS, and lysed in RIPA buffer [50 mM HEPES pH 7.4, 150 mM NaCl, 1% sodium deoxycholate, 1% NP-40, 0.1% SDS, 10 mM sodium pyrophosphate, 10 mM β-glycerophosphate, 2.5 mM MgCl2, 200 µM TCEP, phosphatase and protease inhibitor cocktail (in-house)], to produce whole cell extracts. Whole-cell extracts were sonicated, and protein concentrations were determined using the Bradford assay. Protein extracts (100 µg) were subjected to disulfide bond reduction with 5 mM TCEP (10 min) and alkylation with 25 mM chloroacetamide (20 min). Methanol–chloroform precipitation was performed prior to protease digestion. […]

[2] = target: WNQS mutant ZF degron fused to EGFP (Homo sapiens, UniProt Q96SW2+Q9UKT9, Q147W); assay: Ratiometric EGFP:mCherry flow cytometry degradation assay, 18 h
Sequence of WNQS mutant ZF degron fused to EGFP (Q9UKT9 130-189 Q147W): as the sequence (Q9UKT9 130-189 Q147W/N149E/Q150I) above, with E20N, I21Q counted along it
Sequence of WNQS mutant ZF degron fused to EGFP (Q96SW2 whole entry, the tested form may be a part): as the sequence (Q96SW2 whole entry) above
Sequence of WNQS mutant ZF degron fused to EGFP (Q16531 whole entry partner, the tested form may be a part): as the sequence (Q16531 whole entry partner) above

[3] = target: WEIS mutant ZF degron fused to EGFP (Homo sapiens, UniProt Q96SW2+Q9UKT9, N149E/Q147W/Q150I); assay: as above
Sequence of WEIS mutant ZF degron fused to EGFP (Q9UKT9 130-189 Q147W/N149E/Q150I): as the sequence (Q9UKT9 130-189 Q147W/N149E/Q150I) above
Sequence of WEIS mutant ZF degron fused to EGFP (Q96SW2 whole entry, the tested form may be a part): as the sequence (Q96SW2 whole entry) above
Sequence of WEIS mutant ZF degron fused to EGFP (Q16531 whole entry partner, the tested form may be a part): as the sequence (Q16531 whole entry partner) above

[4] = target: WNIQ mutant ZF degron fused to EGFP (Homo sapiens, UniProt Q96SW2+Q9UKT9, Q147W/Q150I/S154Q); assay: as above
Sequence of WNIQ mutant ZF degron fused to EGFP (Q9UKT9 130-189 Q147W/Q150I/S154Q): as the sequence (Q9UKT9 130-189 Q147W/N149E/Q150I) above, with E20N, S25Q counted along it
Sequence of WNIQ mutant ZF degron fused to EGFP (Q96SW2 whole entry, the tested form may be a part): as the sequence (Q96SW2 whole entry) above
Sequence of WNIQ mutant ZF degron fused to EGFP (Q16531 whole entry partner, the tested form may be a part): as the sequence (Q16531 whole entry partner) above

Sequence of WEIK mutant ZF degron fused to EGFP (Q9UKT9 130-189 Q147W/N149E/Q150I/S154K): as the sequence (Q9UKT9 130-189 Q147W/N149E/Q150I) above, with S25K counted along it
Sequence of WEIK mutant ZF degron fused to EGFP (Q96SW2 whole entry, the tested form may be a part): as the sequence (Q96SW2 whole entry) above
Sequence of WEIK mutant ZF degron fused to EGFP (Q16531 whole entry partner, the tested form may be a part): as the sequence (Q16531 whole entry partner) above

Row | SMILES | Selectivity (WT/mutant) ([1]; DC50(WT)/DC50(WEIK)) | DC50 ([1]; WEIK, Jurkat, 18 h) [nM] | pDC50 ([1]; WEIK, Jurkat, 18 h) | degradation of endogenous IKZF1 (Western blot) (endogenous IKZF1) | D max (HA-NanoLuc-WEIS) [%] | DC50 (HA-NanoLuc-WEIS) [nM] | proteins degraded (quantitative proteomics) (MM.1S cells) | Selectivity (WT/mutant) ([2]; DC50(WT)/DC50(WNQS)) | DC50 ([2]; WNQS, Jurkat, 18 h) [nM] | pDC50 ([2]; WNQS, Jurkat, 18 h) | Selectivity (WT/mutant) ([3]; DC50(WT)/DC50(WEIS)) | DC50 ([3]; WEIS, Jurkat, 18 h) [nM] | pDC50 ([3]; WEIS, Jurkat, 18 h) | Selectivity (WT/mutant) ([4]; DC50(WT)/DC50(WNIQ)) | DC50 ([4]; WNIQ, Jurkat, 18 h) [nM] | pDC50 ([4]; WNIQ, Jurkat, 18 h)
1 | CC(C)(C)c1ccc2c(c1)C(=O)N(C1CCC(=O)NC1=O)C2=O (stereo not shown) [Compound 19] | 18.1 | 42 | 7.38 | – | – | – | – | – | – | – | – | – | – | – | – | –
2 | CN1CCN(c2ccc3c(c2)C(=O)N(C2CCC(=O)NC2=O)C3=O)CC1 (stereo not shown) [Compound 23] | – | – | – | showed no degradation | 89 | 47.8 | did not significantly (Welch’s t test) induce degradation of any protein | 5 | 126 | 6.90 | 35 | 18.2 | 7.74 | 11.8 | 53.7 | 7.27
